In patent US20110230471A1, “BENZONAPHTYRIDINE COMPOUNDS AS INHIBITORS OF AUTOTAXIN” (MERCK PATENT GESELLSCHAFT MIT BESCHRANKTER HAFTUNG, priority 2008, published 2011) one finds IC50 data, which are given here for 20 compounds.

For orientation: IC50 means the concentration needed to halve the response being measured.

For the first experiment, the target named is T1, recombinant autotaxin (Homo sapiens, UniProt Q13822).
T1 construct: made in house; host or cells: Hi5 insect cells (baculovirus)
The experiment is described as follows: Autotaxin test (enzyme test), Amplex Red. It counts as biochemical. The conditions noted are these: Autotaxin inhibition (enzyme test), TABLE 1 (A compounds); substrate LPC 75 μM. On the procedure:
The autotaxin activity is measured indirectly using Amplex Red reagent. Amplex Red is measured here as fluorogenic indicator for the H2O2 formed. In detail, autotaxin converts the substrate lysophosphatidylcholine (LPC) into phosphocholine and lysophosphatidylic acid (LPA). After this reaction, the phosphocholine is reacted with alkaline phosphatase to give inorganic phosphate and choline. In the next step, choline is oxidised by choline oxidase to give betaine, with formation of H2O2. H2O2 reacts with Amplex Red reagent in the presence of peroxidase (horseradish peroxidase) in a 1:1 stoichiometry and forms the highly fluorescent resorufin. The fluorescence is measured in a reaction-dependent kinetic mode in order that fluorescent signals from possible other fluorescent substances which are not involved in the reaction can be corrected out.
1.5 μl of a standard solution or of the test substances (substances with the name A(n))in individual concentrations dissolved in 20 mM Hepes pH 7.2 with a maximum of 7.7% of DMSO are pre-incubated together with 10 μl (16 ng) of highly purified recombinant autotaxin in a black microtitre plate provided with 384 wells at 22° C. for 30 min. The reaction is then initiated by addition of 5 μl of L-α-lysophosphatidylcholine (LPC), where the final concentration of LPC is 75 μM. The mixture is incubated at 37° C. for 90 min. After the incubation, Amplex Red reagent, peroxidase (horseradish peroxidase) and choline oxidase is added, and the fluorescence is immediately measured at 612 nm with excitation of 485 nm in a “Tecan Ultra multimode” reader. The activity of autotaxin is calculated indirectly via detection of the H2O2 formed.
• Microtitre plate: PS microplate, 384 wells, small volume, black Corning, Cat#3677 • Protein: recombinant autotaxin (Baculovirale Hi5 Expression) • Substrate: L-α-lysophosphatidylcholine (chicken egg)); Avanti Polar Lipids # 830071 P • Standard: C14 LPA, Avanti Polar Lipids, Cat# 857120P • Detection reagent: Amplex Red reagent; Invitrogen # A12222; dissolved in 1.923 ml of DMSO peroxidase type VI-A (horseradish) from Sigma # P6782; dissolved in 7.45 ml of test buffer, choline oxidase; Sigma # C5896; dissolved in 2.47 ml of test buffer • Detection reagent mix: 1:100 dilution of Amplex Red reagent in test buffer • Test buffer: 200 mM Tris HCl, Merck, Cat # 1.08219, pH 7.9, 0.1% of BSA, lipid-free, Roche Cat#775835
Take `CCCN1CCN(C(=O)c2c3c(nc4ccccc24)CCN(CC(=O)Nc2cc(Cl)ccc2OC)C3)CC1` [Compound A29, N-(5-Chloro-2-methoxyphenyl)-2-[10-(4-propylpiperazine-1-carbonyl)-3,4-dihydro-1H-benzo[b][1,6]naphthyridin-2-yl]acetamide]: the IC50 was below 100 nM.

`O=C(CN1CCc2nc3ccccc3c(C(=O)N3CCN(CCO)CC3)c2C1)Nc1cc(Cl)cc2ncoc12` [Compound A79, N-(5-Chlorobenzooxazol-7-yl)-2-{10-[4-(2-hydroxyethyl)piperazine-1-carbonyl]-3,4-dihydro-1H-benzo[b][1,6]naphthyridin-2-yl}acetamide]: the IC50 is above 1000 nM.

Take `O=C(CN1CCc2nc3ccccc3c(C(=O)N3CCN(CCO)CC3)c2C1)Nc1cc(Cl)ccc1Cl` [Compound A75, N-(2,5-Dichlorophenyl)-2-{10-[4-(2-hydroxyethyl)piperazine-1-carbonyl]-3,4-dihydro-1H-benzo[b][1,6]naphthyridin-2-yl}acetamide]: the IC50 lay in the range of 100 to 1000 nM.

Turning to `Cc1ccc(NC(=O)CN2CCc3nc4ccccc4c(C(=O)N4CCN(CCO)CC4)c3C2)cc1Cl` [Compound A73, N-(3-Chloro-4-methylphenyl)-2-{10-[4-(2-hydroxyethyl)piperazine-1-carbonyl]-3,4-dihydro-1H-benzo[b][1,6]naphthyridin-2-yl}acetamide], the IC50 was above 1000 nM.

Regarding `O=C(CN1CCc2nc3ccccc3c(C(=O)N3CCN(CCO)CC3)c2C1)Nc1cc(Cl)ccc1OCCO` [Compound A61, N-[5-Chloro-2-(2-hydroxyethoxy)phenyl]-2-{10-[4-(2-hydroxyethyl)-piperazine-1-carbonyl]-3,4-dihydro-1H-benzo[b][1,6]naphthyridin-2-yl}-acetamide], the IC50 was in the range of 100 to 1000 nM.

`O=C(CN1CCc2nc3ccccc3c(C(=O)N3CCOCC3)c2C1)Nc1cc(Br)cc2ccoc12` [Compound A43, N-(5-Bromobenzofuran-7-yl)-2-[10-(morpholine-4-carbonyl)-3,4-dihydro-1H-benzo[b][1,6]naphthyridin-2-yl]acetamide]: the IC50 lay within 100 to 1000 nM.

With `COc1ccc(Cl)cc1N(C)C(=O)CN1CCc2nc3ccccc3c(C(=O)N3CCOCC3)c2C1` [Compound A87, N-(5-Chloro-2-methoxyphenyl)-N-methyl-2-[10-(morpholine-4-carbonyl)-3,4-dihydro-1H-benzo[b][1,6]naphthyridin-2-yl]acetamide], the IC50 lay in the range of 100 to 1000 nM.

Consider `COc1ccc(Cl)cc1NC(=O)CN1CCc2nc3ccccc3c(C(=O)N3CCN(CCN4CCOCC4)CC3)c2C1` [Compound A68, N-(5-Chloro-2-methoxyphenyl)-2-{10-[4-(2-morpholin-4-ylethyl)piperazine-1-carbonyl]-3,4-dihydro-1H-benzo[b][1,6]naphthyridin-2-yl}acetamide], for which the IC50 was below 100 nM.

Turning to `COc1ccc(Cl)cc1NC(=O)CN1CCc2nc3ccccc3c(C(=O)N3CCN(Cc4ccccc4)CC3)c2C1` [Compound A30, 2-[10-(4-Benzylpiperazine-1-carbonyl)-3,4-dihydro-1H-benzo[b][1,6]naphthyridin-2-yl]-N-(5-chloro-2-methoxyphenyl)acetamide], the IC50 lay within 100 to 1000 nM.

For `CN1CCN(C(=O)c2c3c(nc4ccccc24)CCN(C(=O)CCc2ccc(Cl)cc2Cl)C3)CC1` [Compound A31, 3-(2,4-dichlorophenyl)-1-[10-(4-methylpiperazine-1-carbonyl)-3,4-dihydro-1H-benzo[b][1,6]naphthyridin-2-yl]propan-1-one], the IC50 is above 1000 nM.

For `CCc1ccc2c(C(=O)N3CCOCC3)c3c(nc2c1)CCN(CC(=O)Nc1cc(Cl)ccc1OC)C3` [Compound A17, N-(5-Chloro-2-methoxyphenyl)-2-[7-ethyl-10-(morpholine-4-carbonyl)-3,4-dihydro-1H-benzo[b][1,6]naphthyridin-2-yl]acetamide], the IC50 was in the range of 100 to 1000 nM.

Turning to `CN1CCN(C(=O)c2c3c(nc4ccccc24)CCN(C(=O)CCc2ccc(Cl)cc2F)C3)CC1` [Compound A33, 3-(4-Chloro-2-fluorophenyl)-1-[10-(4-methylpiperazine-1-carbonyl)-3,4-dihydro-1H-benzo[b][1,6]naphthyridin-2-yl]propan-1-one], the IC50 is above 1000 nM.

For `CC(C)Oc1ccc(Cl)cc1NC(=O)CN1CCc2nc3ccccc3c(C(=O)N3CCN(CCO)CC3)c2C1` [Compound A60, N-(5-Chloro-2-isopropoxyphenyl)-2-{10-[4-(2-hydroxyethyl)piperazine-1-carbonyl]-3,4-dihydro-1H-benzo[b][1,6]naphthyridin-2-yl}acetamide], the IC50 was above 1000 nM.

Staying with this experiment, now noted: Autotaxin inhibition (enzyme test), TABLE 2 (B compounds); substrate LPC 75 μM.
For `CNC(=O)C(NC(=O)CN1CCc2nc3ccccc3c(C(=O)N3CCN(CCO)CC3)c2C1)c1ccc(Cl)cc1` (centres unmarked) [Compound B2, 2-(4-Chlorophenyl)-2-(2-{10-[4-(2-hydroxyethyl)piperazine-1-carbonyl]-3,4-dihydro-1H-benzo[b][1,6]naphthyridin-2-yl}acetylamino)-N-methylacetamide], the IC50 is above 1000 nM.

For the compound `COc1ccc(Cl)cc1NC(=O)CN1CCc2nc3ccccc3c(C(=O)NCCF)c2C1` [Compound B42, N-(2-Fluoroethyl)-2-[(5-chloro-2-methoxyphenylcarbamoyl)methyl]-1,2,3,4-tetrahydrobenzo[b][1,6]naphthyridine-10-carboxamide], the IC50 is above 1000 nM.

Take `COc1ccc(Cl)cc1-c1nnc(CN2CCc3nc4ccccc4c(C(=O)NCCN(C)C)c3C2)o1` [Compound B29, N-(2-Dimethylaminoethyl)-2-[5-(5-chloro-2-methoxyphenyl)-1,3,4-oxadiazol-2-ylmethyl]-1,2,3,4-tetrahydrobenzo[b][1,6]naphthyridine-10-carboxamide]: the IC50 is above 1000 nM.

Regarding `COc1ccc(Cl)cc1NC(=O)CN1CCc2nc3ccccc3c(C(=O)NC3CCOCC3)c2C1` [Compound B43, N-(Tetrahydropyran-4-yl)-2-[(5-chloro-2-methoxyphenylcarbamoyl)methyl]-1,2,3,4-tetrahydrobenzo[b][1,6]naphthyridine-10-carboxamide], the 50% inhibitory concentration (IC50) fell in the range of 100 to 1000 nM.

Regarding `COc1ccc(Cl)cc1NC(=O)CN1CCc2nc3ccccc3c(C(=O)NC3CCCNC3)c2C1` (centres unmarked) [Compound B53, N-Piperidin-3-yl-2-[(5-chloro-2-methoxyphenylcarbamoyl)methyl]-1,2,3,4-tetrahydrobenzo[b][1,6]naphthyridine-10-carboxamide], the IC50 was above 1000 nM.

Take `O=C(CN1CCc2nc3ccccc3c(C(=O)N3CCN(CCO)CC3)c2C1)Nc1cccc(-c2ccccc2)c1` [Compound B21, N-Biphenyl-3-yl-2-{10-[4-(2-hydroxyethyl)piperazine-1-carbonyl]-3,4-dihydro-1H-benzo[b][1,6]naphthyridin-2-yl}acetamide]: the IC50 was above 1000 nM.

As for `COCCNC(=O)c1c2c(nc3ccccc13)CCN(Cc1nnc(-c3cc(Cl)ccc3OC)o1)C2` [Compound B31, N-(2-Methoxyethyl)-2-[5-(5-chloro-2-methoxyphenyl)-1,3,4-oxadiazol-2-yl-methyl]-1,2,3,4-tetrahydrobenzo[b][1,6]naphthyridine-10-carboxamide], the IC50 was above 1000 nM.
